In patent US20200246485A1, “METHOD FOR GENERATING A DIHYDROMYRICETIN (DHM) FORMULATION” (82 LABS INC, priority 2019, published 2020):
≈ marks a conversion by molar mass, not a printed value. Like-named read-outs stand apart in the source and are kept apart here. Each block holds one compound with its values, some of them ahead of it.

Assays:
[1] = at 25° C.; background; cited from earlier work
physchem = details: 25° C.
DHM solubility in water = format: physicochemical
[2] = in words; cited from earlier work
[3] = cited from earlier work

- solubility (physchem): 700 µg/mL (≈ 2190 µM)
- solubility (DHM solubility in water; 100° C. (hot water)): 15500 µg/mL (≈ 48400 µM)
- solubility (DHM solubility in water; water, 25 °C, water, 25° C. (room temperature), read-out: Solubility): 700 µg/mL (≈ 2190 µM)
- solubility (DHM solubility in water; water, 100 °C, water, 100° C. (hot water), read-out: Solubility): 16000 µg/mL (≈ 50000 µM)
SMILES: O=C1c2c(O)cc(O)cc2O[C@H](c2cc(O)c(O)c(O)c2)[C@H]1O [DHM, (2R,3R)-3,5,7-trihydroxy-2-(3,4,5-trihydroxyphenyl)-2,3-dihydrochromen-4-one]
- solubility [1]: 200 µg/mL (≈ 625 µM)

SMILES: OC[C@H]1O[C@H](O[C@]2(CCl)O[C@H](CCl)[C@@H](O)[C@@H]2O)[C@H](O)[C@@H](O)[C@H]1Cl [sucralose]
- solubility in water [2]: freely soluble

SMILES: OC[C@H]1O[C@@H]2O[C@H]3[C@H](O)[C@@H](O)[C@@H](O[C@H]4[C@H](O)[C@@H](O)[C@@H](O[C@H]5[C@H](O)[C@@H](O)[C@@H](O[C@H]6[C@H](O)[C@@H](O)[C@@H](O[C@H]7[C@H](O)[C@@H](O)[C@@H](O[C@H]1[C@H](O)[C@H]2O)O[C@@H]7CO)O[C@@H]6CO)O[C@@H]5CO)O[C@@H]4CO)O[C@@H]3CO [α-Cyclodextrin, α-cyclodextrin]
- pKa value (25° C.) [3]: 12.331

SMILES: OC[C@H]1O[C@@H]2O[C@H]3[C@H](O)[C@@H](O)[C@@H](O[C@H]4[C@H](O)[C@@H](O)[C@@H](O[C@H]5[C@H](O)[C@@H](O)[C@@H](O[C@H]6[C@H](O)[C@@H](O)[C@@H](O[C@H]7[C@H](O)[C@@H](O)[C@@H](O[C@H]8[C@H](O)[C@@H](O)[C@@H](O[C@H]1[C@H](O)[C@H]2O)O[C@@H]8CO)O[C@@H]7CO)O[C@@H]6CO)O[C@@H]5CO)O[C@@H]4CO)O[C@@H]3CO [β-Cyclodextrin, β-cyclodextrin]
- pKa value (25° C.) [3]: 12.202
